Measurements published in ChEMBL document CHEMBL1681705, “Optimisation of ITK inhibitors through successive iterative design cycles” (Bioorg Med Chem Lett, 2011).

Legend:
[1] = target: MAP kinase-activated protein kinase 2 (Homo sapiens) (UniProt P49137); test: Inhibition of MAPKAP-K2 at 1 uM
[2] = target: T1, Calcium/calmodulin-dependent protein kinase type IV (Homo sapiens) (UniProt Q16566); test: Inhibition of CaMK4 at 1 uM; values are per cent of control
T1 sequence (whole entry): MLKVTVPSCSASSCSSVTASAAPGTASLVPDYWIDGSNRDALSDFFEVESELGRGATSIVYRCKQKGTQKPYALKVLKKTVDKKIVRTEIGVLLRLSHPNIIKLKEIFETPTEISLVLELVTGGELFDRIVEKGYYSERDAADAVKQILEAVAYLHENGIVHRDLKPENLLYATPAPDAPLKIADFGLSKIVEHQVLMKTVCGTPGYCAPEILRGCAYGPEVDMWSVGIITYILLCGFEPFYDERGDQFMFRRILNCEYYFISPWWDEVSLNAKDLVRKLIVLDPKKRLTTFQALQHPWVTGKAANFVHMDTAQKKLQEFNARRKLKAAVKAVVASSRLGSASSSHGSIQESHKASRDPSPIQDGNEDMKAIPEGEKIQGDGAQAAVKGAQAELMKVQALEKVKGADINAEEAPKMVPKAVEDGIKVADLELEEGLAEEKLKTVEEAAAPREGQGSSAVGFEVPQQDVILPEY

[3] = target: Fibroblast growth factor receptor 2 (Homo sapiens) (UniProt P21802); test: Inhibition of FGFR2 at 0.1 uM; values are per cent of control
[4] = target: Ribosomal protein S6 kinase alpha-1 (Homo sapiens) (UniProt Q15418); test: Inhibition of Rsk1 at 1 uM
[5] = target: T2, Mitogen-activated protein kinase kinase kinase 7 (Homo sapiens) (UniProt O43318); test: Inhibition of TAK1 at 0.1 uM; values are per cent of control
T2 sequence (whole entry): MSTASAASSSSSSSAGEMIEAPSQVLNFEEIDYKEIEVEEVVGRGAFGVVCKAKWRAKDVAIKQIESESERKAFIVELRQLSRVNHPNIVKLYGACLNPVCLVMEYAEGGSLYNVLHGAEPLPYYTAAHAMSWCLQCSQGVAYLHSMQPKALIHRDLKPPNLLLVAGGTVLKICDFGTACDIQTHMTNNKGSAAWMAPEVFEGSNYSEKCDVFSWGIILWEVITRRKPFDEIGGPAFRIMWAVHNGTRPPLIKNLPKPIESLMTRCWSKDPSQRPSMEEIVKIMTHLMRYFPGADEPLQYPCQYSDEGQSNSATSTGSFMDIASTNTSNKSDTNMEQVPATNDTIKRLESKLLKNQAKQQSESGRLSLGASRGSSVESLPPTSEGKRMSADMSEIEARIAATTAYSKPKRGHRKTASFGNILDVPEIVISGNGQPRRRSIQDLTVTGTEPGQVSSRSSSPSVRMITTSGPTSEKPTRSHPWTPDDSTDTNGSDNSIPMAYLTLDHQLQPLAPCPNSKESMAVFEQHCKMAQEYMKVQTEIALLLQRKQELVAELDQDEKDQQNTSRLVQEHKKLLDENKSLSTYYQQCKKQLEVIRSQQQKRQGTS

[6] = target: T3, Ephrin type-B receptor 2 (Homo sapiens) (UniProt P29323); test: Inhibition of EphB2 at 0.1 uM; values are per cent of control
T3 sequence (whole entry): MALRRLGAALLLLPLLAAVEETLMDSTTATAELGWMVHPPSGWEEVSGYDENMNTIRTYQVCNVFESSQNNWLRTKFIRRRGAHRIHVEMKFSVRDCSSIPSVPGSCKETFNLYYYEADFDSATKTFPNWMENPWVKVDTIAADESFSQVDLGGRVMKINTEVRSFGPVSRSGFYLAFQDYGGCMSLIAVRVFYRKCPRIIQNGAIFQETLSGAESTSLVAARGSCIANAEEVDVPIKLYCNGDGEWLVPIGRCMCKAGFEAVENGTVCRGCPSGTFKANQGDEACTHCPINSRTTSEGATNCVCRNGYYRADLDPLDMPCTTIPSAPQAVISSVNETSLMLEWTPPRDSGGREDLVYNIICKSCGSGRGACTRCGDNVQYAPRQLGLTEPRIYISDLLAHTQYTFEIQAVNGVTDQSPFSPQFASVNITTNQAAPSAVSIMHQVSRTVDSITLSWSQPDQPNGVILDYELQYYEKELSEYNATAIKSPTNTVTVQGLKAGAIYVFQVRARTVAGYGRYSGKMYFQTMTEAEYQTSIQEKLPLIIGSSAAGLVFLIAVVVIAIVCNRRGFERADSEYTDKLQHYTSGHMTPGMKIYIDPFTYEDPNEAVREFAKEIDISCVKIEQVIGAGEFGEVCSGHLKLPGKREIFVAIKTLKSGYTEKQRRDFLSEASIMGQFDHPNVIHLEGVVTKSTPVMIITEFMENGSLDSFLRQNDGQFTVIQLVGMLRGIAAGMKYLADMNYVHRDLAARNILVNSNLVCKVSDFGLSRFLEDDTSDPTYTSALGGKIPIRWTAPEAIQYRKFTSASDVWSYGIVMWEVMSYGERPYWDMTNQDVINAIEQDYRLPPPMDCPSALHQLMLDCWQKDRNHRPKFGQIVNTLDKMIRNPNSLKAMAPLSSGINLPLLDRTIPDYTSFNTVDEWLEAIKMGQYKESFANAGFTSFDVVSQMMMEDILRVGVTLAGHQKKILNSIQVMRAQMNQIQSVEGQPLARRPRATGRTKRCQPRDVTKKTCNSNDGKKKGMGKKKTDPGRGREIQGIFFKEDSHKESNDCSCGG

Sequence of Ribosomal protein S6 kinase alpha-1 (Homo sapiens) (Q15418 whole entry): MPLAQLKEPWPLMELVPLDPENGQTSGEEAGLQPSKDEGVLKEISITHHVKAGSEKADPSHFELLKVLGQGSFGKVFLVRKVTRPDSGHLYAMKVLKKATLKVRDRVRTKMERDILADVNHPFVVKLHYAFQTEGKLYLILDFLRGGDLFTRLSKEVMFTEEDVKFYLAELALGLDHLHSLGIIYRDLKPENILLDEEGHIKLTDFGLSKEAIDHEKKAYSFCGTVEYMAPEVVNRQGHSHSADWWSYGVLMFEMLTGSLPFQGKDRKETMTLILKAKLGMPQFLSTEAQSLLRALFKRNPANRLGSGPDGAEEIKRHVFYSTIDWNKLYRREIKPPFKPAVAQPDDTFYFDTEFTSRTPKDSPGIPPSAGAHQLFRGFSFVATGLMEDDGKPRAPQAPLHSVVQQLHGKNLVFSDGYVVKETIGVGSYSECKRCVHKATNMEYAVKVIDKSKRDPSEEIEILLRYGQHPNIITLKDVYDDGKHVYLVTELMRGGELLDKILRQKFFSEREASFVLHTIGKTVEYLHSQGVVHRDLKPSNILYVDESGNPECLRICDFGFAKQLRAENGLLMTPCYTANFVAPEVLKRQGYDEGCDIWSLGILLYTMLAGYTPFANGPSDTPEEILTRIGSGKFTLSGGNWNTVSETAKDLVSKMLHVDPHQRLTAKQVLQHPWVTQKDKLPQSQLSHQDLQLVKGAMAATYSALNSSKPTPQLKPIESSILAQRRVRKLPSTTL
Sequence of Fibroblast growth factor receptor 2 (Homo sapiens) (P21802 22-821 limits assumed): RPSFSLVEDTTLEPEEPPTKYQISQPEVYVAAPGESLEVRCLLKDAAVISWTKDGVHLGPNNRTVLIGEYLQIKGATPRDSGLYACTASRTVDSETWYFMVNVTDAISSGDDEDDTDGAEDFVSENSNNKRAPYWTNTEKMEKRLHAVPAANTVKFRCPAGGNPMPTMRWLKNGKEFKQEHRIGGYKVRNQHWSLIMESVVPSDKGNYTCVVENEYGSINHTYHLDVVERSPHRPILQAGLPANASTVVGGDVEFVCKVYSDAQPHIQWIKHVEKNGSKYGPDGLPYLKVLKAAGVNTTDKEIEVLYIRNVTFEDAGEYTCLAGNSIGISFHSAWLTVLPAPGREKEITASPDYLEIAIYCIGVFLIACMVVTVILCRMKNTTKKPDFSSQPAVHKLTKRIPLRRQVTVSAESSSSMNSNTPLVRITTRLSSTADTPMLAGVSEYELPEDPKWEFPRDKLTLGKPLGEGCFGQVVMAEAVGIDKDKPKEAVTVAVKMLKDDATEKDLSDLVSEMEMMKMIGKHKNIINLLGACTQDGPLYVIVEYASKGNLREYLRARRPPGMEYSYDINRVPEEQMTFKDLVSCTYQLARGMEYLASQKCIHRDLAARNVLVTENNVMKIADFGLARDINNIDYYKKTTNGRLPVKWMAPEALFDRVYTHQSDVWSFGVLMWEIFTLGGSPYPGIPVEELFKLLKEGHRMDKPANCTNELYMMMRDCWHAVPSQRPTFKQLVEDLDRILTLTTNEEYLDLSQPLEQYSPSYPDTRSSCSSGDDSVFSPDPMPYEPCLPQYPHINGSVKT
Sequence of MAP kinase-activated protein kinase 2 (Homo sapiens) (P49137 whole entry, looked up): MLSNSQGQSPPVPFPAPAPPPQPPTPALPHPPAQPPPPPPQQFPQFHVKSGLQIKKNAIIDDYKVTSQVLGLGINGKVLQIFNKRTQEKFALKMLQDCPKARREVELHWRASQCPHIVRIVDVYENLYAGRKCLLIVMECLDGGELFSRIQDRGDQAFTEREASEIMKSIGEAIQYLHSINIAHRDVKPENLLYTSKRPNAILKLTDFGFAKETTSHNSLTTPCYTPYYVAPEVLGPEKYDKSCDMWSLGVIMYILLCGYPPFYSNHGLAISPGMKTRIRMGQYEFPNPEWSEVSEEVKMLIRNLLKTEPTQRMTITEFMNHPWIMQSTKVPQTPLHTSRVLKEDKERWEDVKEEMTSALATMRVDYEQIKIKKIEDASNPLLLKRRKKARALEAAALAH

Row | inhibition [1] | residual activity [2] | residual activity [3] | inhibition [4] | residual activity [5] | residual activity [6] | Compound
1 | 48% | 28% | 8% | -1% | 73% | 87% | Cc1ccc2cc(-c3n[nH]c4ccc(NC5CCNC5)cc34)[nH]c2c1 (configuration not stated)
2 | 93% | 115% | 51% | 1% | 84% | 99% | Cc1ccc2cc(-c3n[nH]c4ccc(NC5CCN(Cc6ccccc6)CC5)cc34)[nH]c2c1
